Laboratory results as given in patent US12168673B2 (Mitopower, Inc., priority 2022, dated 2024).
Read-outs that look alike come from different tables or passages of the source.

Columns and labels:
[1] = test system: human hepatocytes; assay: Human hepatocyte clearance; assay type: in vitro ADME
Experimental: (§1) A hepatocyte vial was taken out from the liquid nitrogen tank and was thawed in a water bath maintained at 37° C. The thawed cell suspension was transferred into a torsion tube containing 50 mL of thawing media (Xenotech). The thawing media containing hepatocytes was centrifuged at 1000 rpm for 5 min, the supernatant was discarded and the pellet was resuspended in 2 ml of Xenotech OptiIncubate Media. The cells were counted by using a haemocytometer after mixing an aliquot of cell suspension with equal volume of trypan blue. The cell suspension was diluted to a working density of 2 million cells with DMEM media without FBS/incubation media.
(§2) The assay was performed in duplicates (n=2). 150 μL of 2 million cell working stock of hepatocyte cell suspension was added to a 24 well plate and incubated in a 37° C. incubator, with speed of 500 RPM for 10 min. 150 μL of 2 μM working stock of test compound was incubated separately. The reaction at 0, 15, 30, 60 and 90 min was stopped by precipitating 20 μL of incubation mixture with 200 μL of acetonitrile containing internal standard. […] The supernatant was separated and diluted 1:1 with water before injecting in LC-MS/MS analysis.

[2] = in vitro; conditions: human, plasma
Experimental: (§3) The test compounds were weighed and prepared as 10 mM stocks in 100% DMSO. 10 μM is the final test concentration for all compounds.
(§4) The samples were prepared by spiking test compound(s) in plasma at 10 μM final concentration. 200 μL of plasma containing the test compound was added into the donor well (RED Chamber) of the insert. Simultaneously 350 μL of dialysis buffer (1×PBS) was added into the receiver well (white chamber). Two measurements were made for each test compound. The plate was covered with a sealer and incubated at 37° C. degrees on an orbital shaker at 500 rpm for 5 hours.
(§5) After incubation, 25 μl of plasma (RED chamber) and 25 μl of buffer (white chamber) samples were separately collected into separate centrifugation tubes. Plasma and buffer samples were precipitated with 200 μL of 100% acetonitrile containing internal standards. 25 μl of T0 (T Zero) plasma samples (samples before 5 hours incubation) were collected (To samples were processed immediately after the preparation of plasma working stock solution. These samples serve as a measure for calculating the percentage recovery of the test compound and precipitated using 100% acetonitrile containing internal standards). The samples were vortexed at 1000 rpm for 5 min and centrifuged at 4000 rpm for 10 min. The supernatant was diluted 2-fold with water and injected into LC-MS/MS.
(§6) The % of Plasma bound/unbound fraction was calculated by the following equation: % Unbound or % free=100*(Fc/Tc); % Recovery=100 (Fc+Tc)/[…] where Tc=Total compound concentration as determined by the calculated concentration on the plasma side of the membrane (concentration in plasma chamber), Fc=Free compound concentration as determined by the calculated concentration on the buffer side of the membrane (concentration in buffer chamber) and T0=Total compound concentration as determined before dialysis.

[3] = test system: Human Plasma Protein; assay: in vitro
Experimental: as §3, §4, §5, §6

[4] = test system: human hepatocytes; conditions: 1 μM
Experimental: (§7) 10 mM stock solution of test compound was prepared in DMSO and diluted to a concentration of 1 mM with DMSO. Working concentration of 2 μM was prepared by further dilution with PBS. Preincubation mixture of 150 μL of hepatocyte cell suspension (1,000,000 cells/mL, INVITROGRO HT medium buffer), was added to vials for preincubation for 10 min @37° C.
(§8) 150 μL of 2 μM working stock of the test compound was added to the cell suspension and incubated at @37 C at 500 rpm. The reaction was stopped at 0, 15, 30, 60 and 90 min by precipitating 50 μL of the incubation mixture with 150 μL of acetonitrile. Samples were vortexed for 5 min at 1200 rpm and centrifuged at 4000 rpm for 10 min. 150 μL of the supernatant was diluted with 150 μL of water and injected in MS system (SCIEX, API 4500 Q Trap) for analysis.

[5] = Kinetic solubility; assay type: physicochemical; conditions: aqueous buffer, kinetic from dmso stock, 0.1 M phosphate buffered saline pH 7.4, target 100 μM, 1.5 h
Experimental: The target compound concentration was 100 μM (kinetic), the assay buffer was 0.1 M phosphate buffered saline pH 7.4, the mixing period was 1.5 h (kinetic). The sample was prepared by centrifugation or filtration and the detection method used was HPLC with UV-vis spectrometry.

[6] = Caco-2 permeability assay; conditions: human
Text: The endpoint measured is the intestinal permeability expressed as apparent permeability—Papp value. All permeability values are represented as ×10^−6 cm/sec.

[7] = test system: Jurkat Cells; assay: Cellular NAD+ levels in Jurkat cells (LCMS/MS); assay type: cell-based; conditions: 30 μM, four hours of incubation
Experimental: Compounds 100, 101 and 102 were weighted out to prepare 60 μM stock solutions in RPMI media. 200 ng/mL solution of Rac-tenofovir d6 (Vivan Life-Sciences) was prepared in methanol (MeOH) and placed at −20° C. until use.
Jurkat Cells, sourced from NCCS Pune, were cultured in RPMI media containing FBS & Antibiotics. Cells from different flasks (90% confluent) were pooled into a 15 mL conical tube and centrifuged for 5 mins at 1200 rpm for 5 mins. The supernatant solution was discarded, and the pellet was washed with 5 mL sterile PBS (without Ca^2+ & Mg^2+). The tube was then centrifuged at 1200 rpm for 5 mins and the supernatant was discarded. The cell pellet was resuspended in 7 mL of RPMI media, and a cell count was done using 10 uL of the cell solution. 1.5 million cells from the cell solution were seeded into 1.5 mL microcentrifuge tubes. […] The tubes were placed in racks and gently swirled to mix the compounds into the media containing the cells. These tubes were then incubated for 4 hours in a 37° C. incubator at 5% CO2. After 4 hours of incubation the cells were spun down at 1000 rpm for 10 mins, the supernatant was discarded carefully, and cells were snap frozen in liquid nitrogen. When the samples were run, the extraction of the cells was on ice, cells were lysed using 20 uL deionized water and then ice cold 80% methanol containing the internal standard—Rac-Tenofovir D was added. The tubes were then vortexed at 2500 rpm for 8 minutes and then centrifuged at […] for 10 minutes. 150 uL of the supernatant was carefully transferred to HPLC vials and was analyzed for NAD^+ on the Abscised 4000 Q Trap LCMS/MS system. A C18, 3.5 μm, 2.1×100 mm, Bridge Column was used in the LC. The mobile phase consisted of 10 mM ammonium acetate with 0.1% acetic acid and 0.1% hexylamine as Solvent-A and 10 mM Ammonium acetate with 0.1% acetic acid and 0.1% hexylamine in 95/5 MeOH/H2O as Solvent-B. The gradient used was 0 mins-0.0% B, 0.5 mins-100% B, 1.5 mins-100% B, 3.0 mins-100% B, 3.1 mins-0.0% B, 7.0-STOP. The column flow rate was 0.5 mL/min. The sample injection volume was […].

[8] = test system: Huh-7 Cells; assay: Cellular NAD+ levels in Huh-7 cells (LCMS/MS); assay type: cell-based; conditions: 125 μm, four hours of incubation
Experimental: Huh-7 Cells, sourced from NCCS Pune, were cultured in RPMI media containing FBS & Antibiotics. Cells from different flasks (80-90% confluent) were pooled into a 15 mL conical tube and centrifuged for 5 mins at 1200 rpm for 5 mins. The supernatant solution was discarded, and the pellet was washed with 5 mL sterile PBS (without Ca^2+ and Mg^2+). The tube was then centrifuged at 1200 rpm for 5 mins and the supernatant was discarded. The cell pellet was resuspended in 7 mL of RPMI media, and a cell count was done using 10 uL of the cell solution. 1.5 million cells from the cell solution were seeded into 1.5 mL microcentrifuge tubes. […] The tubes were placed in racks and gently swirled to mix the compounds into the media containing the cells. These tubes were then incubated for 4 hours in a 37° C. incubator at 5% CO2. After 4 hours of incubation the cells were spun down at 1000 rpm for 10 mins, the supernatant was discarded carefully, and cells were snap frozen in liquid nitrogen. When the samples were run, the extraction of the cells was on ice, cells were lysed using 20 uL deionized water and then ice cold 80% methanol containing the internal standard—Rac-Tenofovir D was added. The tubes were then vortexed at 2500 rpm for 8 minutes and then centrifuged at […] for 10 minutes. 150 uL of the supernatant was carefully transferred to HPLC vials and was analyzed for NAD^+ on the Abscised 4000 Q Trap LCMS/MS system. A C18, 3.5 μm, 2.1×100 mm, Bridge Column was used in the LC. The mobile phase consisted of 10 mM ammonium acetate with 0.1% acetic acid & 0.1% hexylamine as Solvent-A and 10 mM Ammonium acetate with 0.1% acetic acid and 0.1% hexylamine in 95/5 MeOH/H2O as Solvent-B. The gradient used was 0 mins-0.0% B, 0.5 mins-100% B, 1.5 mins-100% B, 3.0 mins-100% B, 3.1 mins-0.0% B, 7.0-STOP. The column flow rate was 0.5 mL/min. The sample injection volume was […].

[9] = PK study in rats (plasma); assay type: in vivo; conditions: for half-life: read-out: T1/2 (converted); for AUC(0-t): read-out: AUC0-1
[10] = Human hepatocyte clearance; assay type: in vitro ADME; conditions: human hepatocytes, 1 μM
Experimental: as §1, §2

[11] = test system: human hepatocytes; assay: Human hepatocyte stability
Experimental: as §7, §8

[12] = read-out: Mean Solubility (μg/mL)

## CC(=O)CC(c1ccccc1)c1c(O)c2ccccc2oc1=O (stereo not shown) [Warfarin, reference compound]
[1]
  Remarks (clearance class): Low*
[2]; % Bound in plasma
  fraction unbound at 5 h, 10 μM: 0.0044
[2]; % Unbound in plasma
  fraction unbound at 5 h, 10 μM: 0.0054
[2]; Fraction unbound
  fraction unbound at 5 h, 10 μM: 0.005
[3]
  Remarks (binding class): High binding
[4]; 0 h
  % Parent Remaining: 100%
[4]; 0.25 h
  % Parent Remaining: 91%
[4]; 0.5 h
  % Parent Remaining: 89%
[4]; 1 h
  % Parent Remaining: 96%
[4]; 1.5 h
  % Parent Remaining: 96%

## CCCSc1ccc2nc(NC(=O)OC)[nH]c2c1 [Albendazole, reference compound]
[5]; read-out: Mean Solubility
  solubility at 1.5 h: 0.66 µM
[5]; [12]
  solubility at 1.5 h: 0.2 µg/mL

## O=c1[nH]c2ccccc2n1CCCN1CCC(n2c(=O)[nH]c3cc(Cl)ccc32)CC1 [Domperidone, reference compound]
[6]
  Papp A→B: 39 nm/s
  Papp B→A: 203 nm/s
  efflux ratio: 5.2
[6]; Caco-2, % Recovery A to B
  recovery: 61.8%
[6]; Caco-2, % Recovery B to A
  recovery: 76.4%

## NC(=O)N1c2ccccc2C=Cc2ccccc21 [Carbamazepine, reference compound]
[6]
  Papp A→B: 222 nm/s
  Papp B→A: 234 nm/s
  efflux ratio: 1.1
[6]; Caco-2, % Recovery A to B
  recovery: 89.3%
[6]; Caco-2, % Recovery B to A
  recovery: 91%

## CC(C(=O)O)c1ccc(-c2ccccc2)c(F)c1 (stereo not shown) [Flurbiprofen, reference compound]
[5]; read-out: Mean Solubility
  solubility at 1.5 h: 111 µM
[5]; [12]
  solubility at 1.5 h: 27 µg/mL

## O=C(O)c1cccnc1 [Nicotinic acid]
[7]
  NAD+ level increase compared to untreated cells: showed statistical significance in terms of NAD^+ level increases
[8]
  NAD+ level increase compared to untreated cells: showed an increase
[9]; rat, plasma, iv, 40 mg/kg
  Cmax: 1240 ± 833 µM
  Tmax: 15 min
  clearance: 0.304 L/h/kg
  AUC(0-t): 1080 ± 426 µM·h
[9]; rat, plasma, iv, 40 mg/kg, rats, Group 4: nicotinic acid 40 mg/kg IV
  half-life: 26.9 ± 16.6 min
[9]; rat, plasma, iv, 40 mg/kg, read-out: Vss
  Vd: 0.211 ± 0.156 L/kg
[9]; rat, plasma, po, 200 mg/kg
  Cmax: 519 ± 83.3 µM
  Tmax: 79.8 ± 34.8 min
  bioavailability: 29%
  AUC(0-t): 1680 ± 305 µM·h
[9]; rat, plasma, po, 200 mg/kg, rats, Group 3: nicotinic acid 200 mg/kg PO
  half-life: 85.2 ± 25.8 min
[9]; rats, IV
  IV pharmacokinetics profile (in words): No distribution phase

## C[C@]12CC[C@H]3[C@@H](CCC4=CC(=O)CC[C@@]43C)[C@@H]1CC[C@@H]2O [Testosterone, reference compound]
[10]; 0-90 min, read-out: T½
  half-life at 1 μM: 9.14 min
[10]; read-out: Intrinsic Clearance (CL Int)
  hepatocyte CLint at 1 μM: 75.8 µL/min/1e6 cells
[1]
  Remarks (clearance class): High*
[11]; 0 mins
  % Parent Remaining: 100%
[11]; 15 mins
  % Parent Remaining: 28%
[11]; 30 mins
  % Parent Remaining: 11%
[11]; 60 mins
  % Parent Remaining: 3%
[11]; 90 mins
  % Parent Remaining: 1%
